Reference: patent US10647713B2 (Nimbus Lakshmi, Inc., priority 2016, dated 2020)

These molecules were tested against human TYK2 (JH2domain-pseudokinase) (Homo sapiens (Human), UniProt P29597) (assay: TYK2 JH2 Domain Binding Assay (KINOMEscan, DiscoveRx)). Conditions: 11-point dilution, duplicate.
Outline: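 Kd from duplicate 11-point 3-fold dilutions starting at 30,000 nM, fitted by Hill equation with slope fixed at −1. Compounds (final 0.9% DMSO) displace DNA-tagged HEK293-expressed TYK2 JH2 fusion (<0.1 nM) from ligand-coated beads over 1 h at room temperature; eluted kinase read by qPCR.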

human TYK2 (JH2domain-pseudokinase), sequence (P29597 556-888): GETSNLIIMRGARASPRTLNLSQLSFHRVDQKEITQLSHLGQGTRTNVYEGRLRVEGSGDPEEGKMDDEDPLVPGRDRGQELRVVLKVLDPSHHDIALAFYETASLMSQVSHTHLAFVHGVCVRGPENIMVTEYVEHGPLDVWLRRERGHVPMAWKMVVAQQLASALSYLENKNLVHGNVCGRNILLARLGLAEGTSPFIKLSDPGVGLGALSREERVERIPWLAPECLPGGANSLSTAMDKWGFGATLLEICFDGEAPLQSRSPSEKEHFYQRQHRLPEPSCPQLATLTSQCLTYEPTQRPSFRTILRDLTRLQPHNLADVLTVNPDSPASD

Kd [nM]	Compound
0.1 to 0.5	CN(c1cc(C2CCOCC2)ccc1Nc1cc(NC(=O)C2CC2)nc2[nH]c(C(F)F)nc12)S(C)(=O)=O [I-182, N-(2-(difluoromethyl)-7-((2-(N-methylmethylsulfonamido)-4-(tetrahydro-2H-pyran-4-yl)phenyl)amino)-3H-imidazo[4,5-b]pyridin-5-yl)cyclopropanecarboxamide]
0.1 to 0.5	CN(c1cc(C2CC2)ccc1Nc1cc(NC(=O)C2CC2)nc2[nH]c(C(F)F)nc12)S(C)(=O)=O [I-183, N-(7-((4-cyclopropyl-2-(N-methylmethylsulfonamido)phenyl)amino)-2-(difluoromethyl)-3H-imidazo[4,5-b]pyridin-5-yl)cyclopropanecarboxamide]
0.1 to 0.5	Cc1nc2c(Nc3ccc(C4CC4)cc3N(C)S(C)(=O)=O)cc(NC(=O)C3CC3)nc2[nH]1 [I-184, N-(7-((4-cyclopropyl-2-(N-methylmethylsulfonamido)phenyl)amino)-2-methyl-3H-imidazo[4,5-b]pyridin-5-yl)cyclopropanecarboxamidee]
0.1 to 0.5	Cc1cc(-c2ccc(Nc3cc(NC(=O)C4CC4)nc4[nH]c(C(F)F)nc34)c(N(C)S(C)(=O)=O)c2)nn1C [I-187, N-(2-(difluoromethyl)-7-((4-(1,5-dimethyl-1H-pyrazol-3-yl)-2-(N-methylmethylsulfonamido)phenyl)amino)-3H-imidazo[4,5-b]pyridin-5-yl)cyclopropanecarboxamide]
0.1 to 0.5	Cc1nc2c(Nc3ccc(C4CC4)cc3S(C)(=O)=O)cc(NC(=O)C3CC3)nc2[nH]1 [I-188]
> 10	CCS(=O)(=O)N(C)c1ccccc1Nc1cc(Nc2cccc(C#N)n2)nc2[nH]c(C(F)F)nc12 [I-190, N-(2-((5-((6-cyanopyridin-2-yl)amino)-2-(difluoromethyl)-3H-imidazo[4,5-b]pyridin-7-yl)amino)phenyl)-N-methylethanesulfonamide]
0.1 to 0.5	Cc1nc2c(Nc3ccc(C(F)F)cc3N(C)S(C)(=O)=O)cc(Nc3cccc(C#N)n3)nc2[nH]1 [I-195, N-(2-((5-((6-cyanopyridin-2-yl)amino)-2-methyl-3H-imidazo[4,5-b]pyridin-7-yl)amino)-5-(difluoromethyl)phenyl)-N-methylmethanesulfonamide]
0.5 to 1	Cc1nc2c(Nc3ccc(C4CCOCC4)cc3N(C)S(C)(=O)=O)cc(NC(=O)C3CC3)nc2[nH]1 [I-196, N-(2-methyl-7-((2-(N-methylmethylsulfonamido)-4-(tetrahydro-2H-pyran-4-yl)phenyl)amino)-3H-imidazo[4,5-b]pyridin-5-yl)cyclopropanecarboxamide]
0.1 to 0.5	Cc1nn(C)cc1-c1ccc(Nc2cc(NC(=O)C3CC3)nc3[nH]c(C(F)F)nc23)c(N(C)S(C)(=O)=O)c1 [I-197, N-(2-(difluoromethyl)-7-((4-(1,3-dimethyl-1H-pyrazol-4-yl)-2-(N-methylmethylsulfonamido)phenyl)amino)-3H-imidazo[4,5-b]pyridin-5-yl)cyclopropanecarboxamide]
< 0.1	Cc1c(-c2ccc(Nc3cc(NC(=O)C4CC4)nc4[nH]c(C(F)F)nc34)c(N(C)S(C)(=O)=O)c2)cnn1C [I-198, N N-(2-(difluoromethyl)-7-((4-(1,5-dimethyl-1H-pyrazol-4-yl)-2-(N-methylmethylsulfonamido)phenyl)amino)-3H-imidazo[4,5-b]pyridin-5-yl)cyclopropanecarboxamide]
0.1 to 0.5	[2H]C([2H])([2H])N(c1ccccc1Nc1cc(Nc2cc(C)nc(C)n2)nc2[nH]c(C(F)F)nc12)S(C)(=O)=O [I-200, N-(2-((2-(difluoromethyl)-5-((2,6-dimethylpyrimidin-4-yl)amino)-3H-imidazo[4,5-b]pyridin-7-yl)amino)phenyl)-N-(methyl-d3)methanesulfonamide]
0.5 to 1	CN(c1cc(C(F)F)ccc1Nc1cc(Nc2ccn(C)n2)nc2[nH]c(C(F)F)nc12)S(C)(=O)=O [I-202, N-(5-(difluoromethyl)-2-((2-(difluoromethyl)-5-((1-methyl-1H-pyrazol-3-yl)amino)-3H-imidazo[4,5-b]pyridin-7-yl)amino)phenyl)-N-methylmethanesulfonamide]
0.1 to 0.5	CS(=O)(=O)c1cc(C2CC2)ccc1Nc1cc(NC(=O)C2CC2)nc2[nH]c(C(F)F)nc12 [I-203]

The remaining lines, values behind:

Compound	Kd [nM]
Cc1ccc(Nc2cc(Nc3ccc(Cl)cc3S(C)(=O)=O)c3nc(C(F)F)[nH]c3n2)nn1 [I-185, N7-(4-chloro-2-(methylsulfonyl)phenyl)-2-(difluoromethyl)-N5-(6-methylpyridazin-3-yl)-3H-imidazo[4,5-b]pyridine-5,7-diamine]	0.1 to 0.5
Cc1nc2c(Nc3ccc(Cl)cc3S(C)(=O)=O)cc(Nc3cccc(C#N)n3)nc2[nH]1 [I-186, 6-((7-((4-chloro-2-(methylsulfonyl)phenyl)amino)-2-methyl-3H-imidazo[4,5-b]pyridin-5-yl)amino)picolinonitrile]	0.1 to 0.5
Cc1ccc(Nc2cc(Nc3ccc(Cl)cc3S(C)(=O)=O)c3nc(C)[nH]c3n2)nn1 [I-189, N7-(4-chloro-2-(methylsulfonyl)phenyl)-2-methyl-N5-(6-methylpyridazin-3-yl)-3H-imidazo[4,5-b]pyridine-5,7-diamine]	0.1 to 0.5
CS(=O)(=O)c1cc(Cl)ccc1Nc1cc(Nc2cccc(C#N)n2)nc2[nH]c(C(F)F)nc12 [I-191, 6-((7-((4-chloro-2-(methylsulfonyl)phenyl)amino)-2-(difluoromethyl)-3H-imidazo[4,5-b]pyridin-5-yl)amino)picolinonitrile]	0.5 to 1
Cc1nc2c(Nc3ccc(Cl)cc3S(C)(=O)=O)cc(NC(=O)[C@H]3C[C@H]3F)nc2[nH]1 [I-192, (1R,2R)—N-(7-((4-chloro-2-(methylsulfonyl)phenyl)amino)-2-methyl-3H-imidazo[4,5-b]pyridin-5-yl)-2-fluorocyclopropane-1-carboxamide]	1 to 10
Cc1nc2c(Nc3ccc(-c4cc(C)n(C)n4)cc3N(C)S(C)(=O)=O)cc(NC(=O)C3CC3)nc2[nH]1 [I-193, N-(7-((4-(1,5-dimethyl-1H-pyrazol-3-yl)-2-(N-methylmethylsulfonamido)phenyl)amino)-2-methyl-3H-imidazo[4,5-b]pyridin-5-yl)cyclopropanecarboxamide]	> 10
Cc1nc2c(Nc3ccc(-c4cn(C)nc4C)cc3N(C)S(C)(=O)=O)cc(NC(=O)C3CC3)nc2[nH]1 [I-194, N-(7-((4-(1,3-dimethyl-1H-pyrazol-4-yl)-2-(N-methylmethylsulfonamido)phenyl)amino)-2-methyl-3H-imidazo[4,5-b]pyridin-5-yl)cyclopropanecarboxamide]	> 10
Cc1nc2c(Nc3ccc(-c4cnn(C)c4C)cc3N(C)S(C)(=O)=O)cc(NC(=O)C3CC3)nc2[nH]1 [I-199, N-(7-((4-(1,5-dimethyl-1H-pyrazol-4-yl)-2-(N-methylmethylsulfonamido)phenyl)amino)-2-methyl-3H-imidazo[4,5-b]pyridin-5-yl)cyclopropanecarboxamide]	< 0.1
[2H]C([2H])([2H])N(c1ccccc1Nc1cc(Nc2cc(C)nc(C)n2)nc2[nH]c(C)nc12)S(C)(=O)=O [I-201, N-(2-((5-((2,6-dimethylpyrimidin-4-yl)amino)-2-methyl-3H-imidazo[4,5-b]pyridin-7-yl)amino)phenyl)-N-(methyl-d3)methanesulfonamide]	0.1 to 0.5
